ChEMBL document CHEMBL2429780, “Synthesis, antimicrobial and cytotoxic activity of 2-azetidinone derivatives of pyridyl benzimidazoles” (Med Chem Res, 2013)
Active and inactive are the calls of the source.

Columns and labels:
Assay type in all cases: functional, organism-based
[1] = tested on: Streptococcus pyogenes; experiment: Antibacterial activity against Streptococcus pyogenes MTCC 442 assessed as growth inhibition at 12.5 to 1000 ug/mL after 24 hrs by broth dilution assay
[2] = tested on: Escherichia coli; experiment: Antibacterial activity against Escherichia coli MTCC 443 assessed as growth inhibition at 12.5 to 1000 ug/mL after 24 hrs by broth dilution assay
[3] = tested on: Candida albicans; experiment: Antifungal activity against Candida albicans assessed as growth inhibition at 12.5 to 1000 ug/mL after 48 hrs by broth dilution assay
[4] = tested on: Aspergillus clavatus; experiment: Antifungal activity against Aspergillus clavatus assessed as growth inhibition at 12.5 to 1000 ug/mL after 48 hrs by broth dilution assay
[5] = tested on: Staphylococcus aureus; experiment: Antibacterial activity against Staphylococcus aureus MTCC 96 assessed as growth inhibition at 12.5 to 1000 ug/mL after 24 hrs by broth dilution assay
[6] = tested on: Pseudomonas aeruginosa; experiment: Antibacterial activity against Pseudomonas aeruginosa MTCC 1688 assessed as growth inhibition at 12.5 to 1000 ug/mL after 24 hrs by broth dilution assay
[7] = tested on: Aspergillus niger; experiment: Antifungal activity against Aspergillus niger assessed as growth inhibition at 12.5 to 1000 ug/mL after 48 hrs by broth dilution assay

Measured: growth inhibition (GI)

N#Cc1c(-c2ccc(Cl)cc2O)cc(-c2nc3ccccc3[nH]2)nc1N
inactive: [1] | [2] | [3] | [4] | [5] | [6] | [7]

N#Cc1c(-c2ccccc2O)cc(-c2nc3ccccc3[nH]2)nc1N
inactive: [1] | [2] | [3] | [4] | [5] | [6] | [7]

N#Cc1c(-c2ccccc2)cc(-c2nc3ccccc3[nH]2)nc1N
inactive: [1] | [2] | [3] | [4] | [5] | [6] | [7]

Cc1cccc(-c2cc(-c3nc4ccccc4[nH]3)nc(N)c2C#N)c1
inactive: [1] | [2] | [3] | [4] | [5] | [6] | [7]
